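Each compound was tested at five concentrations against cells in 96-well plates for 48 hours. Here, GI50 denotes the concentration required for 50% inhibition of growth. Definition used: TGI = concentration required for complete inhibition of growth.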
Key:
Test in all cases: NCI anticancer screen, dose series, 48 h
HCT-116 colon = tested on: HCT-116 colon
MOLT-4 leukemia = tested on: MOLT-4 leukemia
HCT-15 colon = tested on: HCT-15 colon
SN12C renal = tested on: SN12C renal
TK-10 renal = tested on: TK-10 renal
OVCAR-5 ovarian = tested on: OVCAR-5 ovarian
MDA-MB-231 breast = tested on: MDA-MB-231 breast
SNB-75 CNS = tested on: SNB-75 CNS
SF-268 CNS = tested on: SF-268 CNS
SW-620 colon = tested on: SW-620 colon
M14 melanoma = tested on: M14 melanoma
UACC-257 melanoma = tested on: UACC-257 melanoma
A498 renal = tested on: A498 renal
786-0 renal = tested on: 786-0 renal
OVCAR-4 ovarian = tested on: OVCAR-4 ovarian
RXF 393 renal = tested on: RXF 393 renal
OVCAR-8 ovarian = tested on: OVCAR-8 ovarian
NCI-H522 lung = tested on: NCI-H522 lung
HOP-62 NSCLC = tested on: HOP-62 NSCLC
LOX IMVI melanoma = tested on: LOX IMVI melanoma
ACHN renal = tested on: ACHN renal
HL-60(TB) leukemia = tested on: HL-60(TB) leukemia
SNB-19 CNS = tested on: SNB-19 CNS
BT-549 breast = tested on: BT-549 breast
SR leukemia = tested on: SR leukemia
SF-539 CNS = tested on: SF-539 CNS
MDA-MB-435 = tested on: MDA-MB-435
HS 578T breast = tested on: HS 578T breast
SF-295 CNS = tested on: SF-295 CNS
HOP-92 NSCLC = tested on: HOP-92 NSCLC
CCRF-CEM leukemia = tested on: CCRF-CEM leukemia
RPMI-8226 leukemia = tested on: RPMI-8226 leukemia
SK-MEL-28 melanoma = tested on: SK-MEL-28 melanoma
DU-145 prostate = tested on: DU-145 prostate
SK-MEL-5 melanoma = tested on: SK-MEL-5 melanoma
SK-MEL-2 melanoma = tested on: SK-MEL-2 melanoma
HCC-2998 colon = tested on: HCC-2998 colon
UO-31 renal = tested on: UO-31 renal
CAKI-1 renal = tested on: CAKI-1 renal
HT29 colon = tested on: HT29 colon
MCF7 breast = tested on: MCF7 breast
UACC-62 melanoma = tested on: UACC-62 melanoma
OVCAR-3 ovarian = tested on: OVCAR-3 ovarian
SK-OV-3 ovarian = tested on: SK-OV-3 ovarian
U251 CNS = tested on: U251 CNS
KM12 colon = tested on: KM12 colon
PC-3 prostate = tested on: PC-3 prostate
A549 NSCLC = tested on: A549 NSCLC
IGROV1 ovarian = tested on: IGROV1 ovarian
K-562 leukemia = tested on: K-562 leukemia
NCI-H460 lung = tested on: NCI-H460 lung
EKVX NSCLC = tested on: EKVX NSCLC
COLO 205 colon = tested on: COLO 205 colon
NCI-H226 lung = tested on: NCI-H226 lung
NCI/ADR-RES ovarian = tested on: NCI/ADR-RES ovarian
NCI-H23 lung = tested on: NCI-H23 lung

**Q.** `CCCn1cnc2c(c1=N)C(c1ccc(F)cc1)c1sc3c(CC)cccc3c1O2` (stereo unspecified) was tested. Which GI50 (HCT-116 colon) did it give?
**A.** 263 nM

**Q.** And the TGI (HCT-116 colon)?
**A.** 4770 nM

**Q.** What about the GI50 (MOLT-4 leukemia) of the same compound?
**A.** 434 nM

**Q.** And the TGI (MOLT-4 leukemia)?
**A.** > 100000 nM

**Q.** What about the GI50 (HCT-15 colon) of the same compound?
**A.** 179 nM

**Q.** And the TGI (HCT-15 colon)?
**A.** > 100000 nM

**Q.** And the GI50 (SN12C renal)?
**A.** 398 nM

**Q.** And the TGI (SN12C renal)?
**A.** 22500 nM

**Q.** And the GI50 (TK-10 renal)?
**A.** 19400 nM

**Q.** What about the TGI (TK-10 renal) of the same compound?
**A.** > 100000 nM

**Q.** And the GI50 (OVCAR-5 ovarian)?
**A.** 493 nM

**Q.** And the TGI (OVCAR-5 ovarian)?
**A.** > 100000 nM

**Q.** What about the GI50 (MDA-MB-231 breast) of the same compound?
**A.** 325 nM

**Q.** And the TGI (MDA-MB-231 breast)?
**A.** > 62300 nM

**Q.** And the GI50 (SNB-75 CNS)?
**A.** 35.3 nM

**Q.** And the TGI (SNB-75 CNS)?
**A.** 36500 nM

**Q.** And the GI50 (SF-268 CNS)?
**A.** 241 nM

**Q.** What about the TGI (SF-268 CNS) of the same compound?
**A.** > 100000 nM

**Q.** And the GI50 (SW-620 colon)?
**A.** 237 nM

**Q.** What about the TGI (SW-620 colon) of the same compound?
**A.** > 100000 nM

**Q.** What about the GI50 (M14 melanoma) of the same compound?
**A.** 182 nM

**Q.** And the TGI (M14 melanoma)?
**A.** 33600 nM

**Q.** What about the GI50 (UACC-257 melanoma) of the same compound?
**A.** 27500 nM

**Q.** What about the TGI (UACC-257 melanoma) of the same compound?
**A.** > 100000 nM

**Q.** And the GI50 (A498 renal)?
**A.** 79.9 nM

**Q.** And the TGI (A498 renal)?
**A.** 1040 nM

**Q.** And the GI50 (786-0 renal)?
**A.** 443 nM

**Q.** What about the TGI (786-0 renal) of the same compound?
**A.** > 89200 nM

**Q.** And the GI50 (OVCAR-4 ovarian)?
**A.** 336 nM

**Q.** And the TGI (OVCAR-4 ovarian)?
**A.** > 100000 nM

**Q.** And the GI50 (RXF 393 renal)?
**A.** 29.4 nM

**Q.** What about the TGI (RXF 393 renal) of the same compound?
**A.** 130 nM

**Q.** And the GI50 (OVCAR-8 ovarian)?
**A.** 434 nM

**Q.** And the TGI (OVCAR-8 ovarian)?
**A.** > 100000 nM

**Q.** And the GI50 (NCI-H522 lung)?
**A.** 35.9 nM

**Q.** What about the TGI (NCI-H522 lung) of the same compound?
**A.** 8080 nM

**Q.** And the GI50 (HOP-62 NSCLC)?
**A.** 423 nM

**Q.** And the TGI (HOP-62 NSCLC)?
**A.** 29700 nM

**Q.** What about the GI50 (LOX IMVI melanoma) of the same compound?
**A.** 40.4 nM

**Q.** And the TGI (LOX IMVI melanoma)?
**A.** 31300 nM

**Q.** What about the GI50 (ACHN renal) of the same compound?
**A.** 133 nM

**Q.** What about the TGI (ACHN renal) of the same compound?
**A.** 49900 nM

**Q.** What about the GI50 (HL-60(TB) leukemia) of the same compound?
**A.** 243 nM

**Q.** And the TGI (HL-60(TB) leukemia)?
**A.** 1080 nM

**Q.** And the GI50 (SNB-19 CNS)?
**A.** 273 nM

**Q.** What about the TGI (SNB-19 CNS) of the same compound?
**A.** 49400 nM

**Q.** And the GI50 (BT-549 breast)?
**A.** 1990 nM

**Q.** And the TGI (BT-549 breast)?
**A.** 19100 nM

**Q.** And the GI50 (SR leukemia)?
**A.** 117 nM

**Q.** What about the TGI (SR leukemia) of the same compound?
**A.** > 42300 nM

**Q.** What about the GI50 (SF-539 CNS) of the same compound?
**A.** 94.9 nM

**Q.** And the TGI (SF-539 CNS)?
**A.** 815 nM

**Q.** What about the GI50 (MDA-MB-435) of the same compound?
**A.** 23.9 nM

**Q.** And the TGI (MDA-MB-435)?
**A.** 60 nM

**Q.** And the GI50 (HS 578T breast)?
**A.** 86.4 nM

**Q.** What about the TGI (HS 578T breast) of the same compound?
**A.** > 88000 nM

**Q.** What about the GI50 (SF-295 CNS) of the same compound?
**A.** 47.8 nM

**Q.** What about the TGI (SF-295 CNS) of the same compound?
**A.** > 47900 nM

**Q.** And the GI50 (HOP-92 NSCLC)?
**A.** 53.8 nM

**Q.** What about the TGI (HOP-92 NSCLC) of the same compound?
**A.** 4190 nM

**Q.** And the GI50 (CCRF-CEM leukemia)?
**A.** 314 nM

**Q.** And the TGI (CCRF-CEM leukemia)?
**A.** > 67900 nM

**Q.** What about the GI50 (RPMI-8226 leukemia) of the same compound?
**A.** 200 nM

**Q.** What about the TGI (RPMI-8226 leukemia) of the same compound?
**A.** > 22900 nM

**Q.** And the GI50 (SK-MEL-28 melanoma)?
**A.** 8900 nM

**Q.** And the TGI (SK-MEL-28 melanoma)?
**A.** > 100000 nM

**Q.** What about the GI50 (DU-145 prostate) of the same compound?
**A.** 309 nM

**Q.** What about the TGI (DU-145 prostate) of the same compound?
**A.** 15300 nM

**Q.** And the GI50 (SK-MEL-5 melanoma)?
**A.** 99.8 nM

**Q.** What about the TGI (SK-MEL-5 melanoma) of the same compound?
**A.** 1200 nM

**Q.** What about the GI50 (SK-MEL-2 melanoma) of the same compound?
**A.** 7570 nM

**Q.** What about the TGI (SK-MEL-2 melanoma) of the same compound?
**A.** > 100000 nM

**Q.** And the GI50 (HCC-2998 colon)?
**A.** 337 nM

**Q.** And the TGI (HCC-2998 colon)?
**A.** 38700 nM

**Q.** And the GI50 (UO-31 renal)?
**A.** 81.3 nM

**Q.** And the TGI (UO-31 renal)?
**A.** > 100000 nM

**Q.** What about the GI50 (CAKI-1 renal) of the same compound?
**A.** 62.1 nM

**Q.** What about the TGI (CAKI-1 renal) of the same compound?
**A.** 18300 nM

**Q.** And the GI50 (HT29 colon)?
**A.** 302 nM

**Q.** And the TGI (HT29 colon)?
**A.** 27300 nM

**Q.** What about the GI50 (MCF7 breast) of the same compound?
**A.** 24.7 nM

**Q.** And the TGI (MCF7 breast)?
**A.** > 100000 nM

**Q.** What about the GI50 (UACC-62 melanoma) of the same compound?
**A.** 38 nM

**Q.** What about the TGI (UACC-62 melanoma) of the same compound?
**A.** 29000 nM

**Q.** What about the GI50 (OVCAR-3 ovarian) of the same compound?
**A.** 68 nM

**Q.** What about the TGI (OVCAR-3 ovarian) of the same compound?
**A.** 7680 nM

**Q.** And the GI50 (SK-OV-3 ovarian)?
**A.** 1210 nM

**Q.** And the TGI (SK-OV-3 ovarian)?
**A.** 35000 nM

**Q.** And the GI50 (U251 CNS)?
**A.** 273 nM

**Q.** And the TGI (U251 CNS)?
**A.** > 40600 nM

**Q.** What about the GI50 (KM12 colon) of the same compound?
**A.** 275 nM

**Q.** What about the TGI (KM12 colon) of the same compound?
**A.** > 42300 nM

**Q.** And the GI50 (PC-3 prostate)?
**A.** 79.8 nM

**Q.** What about the TGI (PC-3 prostate) of the same compound?
**A.** > 51400 nM

**Q.** What about the GI50 (A549 NSCLC) of the same compound?
**A.** 236 nM

**Q.** What about the TGI (A549 NSCLC) of the same compound?
**A.** > 90700 nM

**Q.** And the GI50 (IGROV1 ovarian)?
**A.** 176 nM

**Q.** What about the TGI (IGROV1 ovarian) of the same compound?
**A.** 24000 nM

**Q.** What about the GI50 (K-562 leukemia) of the same compound?
**A.** 58.3 nM

**Q.** What about the TGI (K-562 leukemia) of the same compound?
**A.** > 100000 nM

**Q.** What about the GI50 (NCI-H460 lung) of the same compound?
**A.** 211 nM

**Q.** And the TGI (NCI-H460 lung)?
**A.** 13900 nM

**Q.** And the GI50 (EKVX NSCLC)?
**A.** 481 nM

**Q.** And the TGI (EKVX NSCLC)?
**A.** > 100000 nM

**Q.** And the GI50 (COLO 205 colon)?
**A.** 354 nM

**Q.** And the TGI (COLO 205 colon)?
**A.** 1950 nM

**Q.** What about the GI50 (NCI-H226 lung) of the same compound?
**A.** 395 nM

**Q.** What about the GI50 (NCI/ADR-RES ovarian) of the same compound?
**A.** 50.1 nM

**Q.** What about the TGI (NCI/ADR-RES ovarian) of the same compound?
**A.** 26400 nM

**Q.** And the GI50 (NCI-H23 lung)?
**A.** 138 nM

**Q.** What about the TGI (NCI-H23 lung) of the same compound?
**A.** 19300 nM

Source: PubChem BioAssay (NCI)
